Results taken from patent publication US4337256A, “1-Phenyl isoquinoline-5-acetic acid compounds and analgesic compositions thereof” (priority 1978, dated 1982).
Read-outs that look alike come from different tables or passages of the source.

Columns and labels:
[1] = test system: writhings (acetic acid) in the mice; assay: Analgesic activity: acetic acid writhing test; type: in vivo, male mice (ddY); settings: Mus musculus, po, read-out: ED50 (analgesic, writhing inhibition)
Description: Male mice (ddY) weighing 18 to 22 g were used in groups each consisting of 10 mice. Each of the compounds was suspended in an aqueous solution of 0.5% of carboxymethyl cellulose and 2.0% of Tween 80, and administered orally through a tube. After one hour from the administration, 0.6% acetic acid was administered intraperitoneally in an amount of 0.1 ml per 10 g of body weight, and the number of writhings which occurred in the mice during a period of 20 minutes after the administration was measured. The percent inhibition was calculated from the following equation, and the ED50 values of the test compounds were calculated from the percent inhibition in accordance with the method of Litchfield-Wilcoxon.

[2] = biological target: T1, microsomes of bovine seminal vesicle (a prostaglandin synthesizing enzyme) (Bos taurus, UniProt O62664); assay: Activity of inhibiting prostaglandin synthesis (prostaglandin E2 formed); type: biochemical; settings: 37° C., 5 minutes, pH 8.0, 50 μM arachidonic acid; dissolved as a sodium salt; read-out: ED50 (inhibition of prostaglandin synthesis)
T1 construct: a microsome fraction prepared from bovine seminal vesicle; from tissue; host or cells: bovine seminal vesicle, lyophilized microsome fraction
T1 sequence (O62664 25-600): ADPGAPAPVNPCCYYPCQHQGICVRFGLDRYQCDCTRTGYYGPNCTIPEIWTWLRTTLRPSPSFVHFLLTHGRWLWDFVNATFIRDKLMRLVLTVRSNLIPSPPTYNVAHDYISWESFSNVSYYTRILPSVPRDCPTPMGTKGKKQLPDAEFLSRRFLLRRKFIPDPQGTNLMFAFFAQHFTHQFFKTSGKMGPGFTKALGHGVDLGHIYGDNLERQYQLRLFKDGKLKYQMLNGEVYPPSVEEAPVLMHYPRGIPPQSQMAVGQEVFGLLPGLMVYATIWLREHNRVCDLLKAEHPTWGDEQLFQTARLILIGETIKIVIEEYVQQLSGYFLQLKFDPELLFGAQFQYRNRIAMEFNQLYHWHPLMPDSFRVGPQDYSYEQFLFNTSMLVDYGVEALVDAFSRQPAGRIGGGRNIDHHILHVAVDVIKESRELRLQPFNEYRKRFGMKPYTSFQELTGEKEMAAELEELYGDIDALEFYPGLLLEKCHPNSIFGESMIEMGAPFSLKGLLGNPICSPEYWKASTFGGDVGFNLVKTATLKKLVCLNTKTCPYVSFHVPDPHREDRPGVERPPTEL
Description: The activity of inhibiting prostaglandin synthesis was measured by adding a test compound, i.e. a substance having the activity of inhibiting prostaglandin synthesis, to a prostaglandin synthesizing reaction system shown below, and quantitatively determining to what extent synthesis of prostaglandin was inhibited.
100 mM tris-HCl buffer (pH=8.0),
0.0125 μCi/ml (14c)-arachidonic acid,
1 mg/ml, as protein, of microsomes of bovine seminal vesicle (a prostaglandin synthesizing enzyme obtained by lyophylizing a microsome fraction prepared from bovine seminal vesicle).
The test compound was added to the reaction system to adjust the total amount to 1 ml. As a control, 1 ml of the above reaction system without addition of the test compound was provided. Each of these was incubated with shaking at 37° C. for 5 minutes, and 0.5 ml of 0.3 M citric acid was added to stop the reaction. The prostaglandin formed was extracted with ethyl acetate, fractionated by thin-layer chromatography. The radioactivity of each fraction was measured by a liquid scintillation counter. The amount of prostaglandin E2 formed in the group to which the test compound had been applied was measured, and the percent inhibition was calculated in accordance with the following equation. From the percent inhibition, the ED50 value of the test compounds was calculated in accordance with the Litchfield-Wilcoxon method. […]

digestive organs = settings: known agents, statement in words; cited from earlier work
[3] = test system: left hind paw edema (carrageenin); assay: Anti-inflammatory activity: carrageenin-induced left hind paw edema; type: in vivo, male Wistar rats; settings: Rattus norvegicus, po, read-out: Percent inhibition (edema)
Description: Male Wistar rats weighing 120 to 150 g which had been fasted for 24 hours were used in groups each consisting of 5 rats. In each group, the volumes of the left hind paw were measured by a volume differential meter (made by Ugo Basile Company), and each of the test compounds was suspended in an aqueous solution of 0.5% of carboxymethyl cellulose and 2.0% of Tween 80, and administered orally through a tube. After one hour from the administration, 0.1 ml of a 1% suspension of carrageenin in distilled water was subcutaneously injected into the plantar tissues of the left hind paw. Three hours later, the volumes of the left hind paw were again measured. The increase in volume of the left hind paw of each rat in each group (the volume of edema) was measured.

stomach mucosal membrane = assay: Ulcerogenic activity: gastric ulceration; type: in vivo, male Wistar rats; settings: p.o., 4 h
Description: Each of the test compounds was orally administered by the same way as in the test on anti-inflammatory activity to male Wistar rats weighing 120 to 150 g which had been fasted for 24 hours. Four hours later, they were killed with ether.

Toxicity test (LD50) = settings: mouse, in vivo; oral, observed for 1 week; parentheses show 95% confidence limits
Description: Each of the test compounds was suspended in a physiological saline solution having dissolved therein 2% of Tween 80, and orally administered through a tube to groups of ddY mice (male: 19 to 22 g) each group consisting of 6 mice. The mice were then observed for 1 week. The LD50 values were calculated from the lethality in accordance with the method of Litchfield-Wilcoxon.

[4] = p.o. 1 h before 0.6% acetic acid i.p., parentheses show 95% confidence limits
[5] = 1 mg/kg, p.o., 1 h before carrageenin, measured 3 h later
[6] = 3 mg/kg, p.o., 1 h before carrageenin, measured 3 h later
[7] = 10 mg/kg, p.o., 1 h before carrageenin, measured 3 h later
[8] = p.o., 1 h before carrageenin, measured 3 h later

| Structure (SMILES) | ED50 [1, 4] | inhibition in vivo at 1 mg/kg [3, 5] | inhibition in vivo at 3 mg/kg [3, 6] | Gastric ulceration: bleeding at the mucosal membrane (stomach mucosal membrane; 10 mg/kg) | Gastric ulceration: damage beneath the mucosal membrane (stomach mucosal membrane; 10 mg/kg) | Gastric ulceration: bleeding at the mucosal membrane (stomach mucosal membrane; 30 mg/kg) | Gastric ulceration: damage beneath the mucosal membrane (stomach mucosal membrane; 30 mg/kg) | LD50 at 168 h (Toxicity test (LD50)) | inhibition in vivo at 10 mg/kg [3, 7] | also measured |
| --- | --- | --- | --- | --- | --- | --- | --- | --- | --- | --- |
| CCCCC1C(=O)N(c2ccccc2)N(c2ccccc2)C1=O [Phenylbutazone, reference compound] | 109 mg/kg | – | – | – | – | – | – | – | – | IC50 [2]: 26.1 µM; troubles in the digestive organs (digestive organs): fairly heavy troubles in the digestive organs |
| O=C(O)Cc1cccc2c(-c3ccc(Br)cc3)nccc12 [B, 1-(4-bromophenyl)isoquinoline-5-acetic acid] | 1 mg/kg | 33.7 ± 6.1% | 48.2 ± 4.4% | 0/5 | 0/5 | 2/5 | 4/5 | 182 mg/kg | – | inhibition in vivo at 0.3 mg/kg ([3]; 0.3 mg/kg, p.o., 1 h before carrageenin, measured 3 h later): 26.8 ± 5.3% |
| O=C(O)Cc1cccc2c(-c3ccccc3)nccc12 [H, 1-phenylisoquinoline-5-acetic acid] | 4.1 mg/kg | – | 21.8 ± 4.5% | 1/15 | 1/15 | 4/20 | 2/20 | > 300 mg/kg | 31 ± 5.2% | inhibition in vivo at 30 mg/kg [3, 8]: 46.4 ± 7.7% |
| O=C(O)Cc1cccc2c(-c3ccc(F)cc3)nccc12 [C, 1-(4-fluorophenyl)isoquinoline-5-acetic acid] | 8.8 mg/kg | 25.6 ± 3.4% | 28.3 ± 5.8% | – | – | – | – | > 300 mg/kg | 36.5 ± 4% | – |
| COc1ccc(-c2nccc3c(CC(=O)O)cccc23)cc1 [G, 1-(4-methoxyphenyl)isoquinoline-5-acetic acid] | 9.2 mg/kg | 13.1 ± 9.1% | 32.3 ± 6.3% | – | – | 0/5 | 0/5 | > 300 mg/kg | 41.2 ± 7.2% | – |
| CN(C)c1ccc(-c2nccc3c(CC(=O)O)cccc23)cc1 [D, 1-(4-dimethylaminophenyl)isoquinoline-5-acetic acid] | 0.11 mg/kg | 16.3 ± 7.1% | 34.2 ± 5.6% | 0/6 | 0/6 | 3/6 | 3/6 | > 300 mg/kg | 42.1 ± 5.3% | – |
| CC(C)c1nccc2c(CC(=O)O)cccc12 [M, 1-isopropylisoquinoline-5-acetic acid] | 3.5 mg/kg | 19.3 ± 2.6% | 38.6 ± 3.2% | – | – | – | – | 250 mg/kg | 62.9 ± 5.9% | – |
| Cc1ccc(-c2nccc3c(CC(=O)O)cccc23)cc1 [Compound E, 1-(4-methylphenyl)isoquinoline-5-acetic acid] | 4.3 mg/kg | – | 26.9 ± 5.2% | 0/5 | 0/5 | 0/5 | 4/5 | > 300 mg/kg | 49.5 ± 5.1% | – |
| O=C(O)Cc1cccc2c(-c3ccc(C(F)(F)F)cc3)nccc12 [I, 1-(4-trifluoromethylphenyl)isoquinoline-5-acetic acid] | – | – | 17 ± 4.5% | – | – | – | – | – | 24.5 ± 7.1% | inhibition in vivo at 30 mg/kg [3, 8]: 30.2 ± 5.3% |
| O=C(O)Cc1cccc2c(C3CCCCC3)nccc12 [Compound L, 1-cyclohexylisoquinoline-5-acetic acid] | 8.5 mg/kg | 9.7 ± 2% | 17.4 ± 5.2% | 0/5 | 0/5 | 3/5 | 3/5 | > 300 mg/kg | 43.1 ± 4.3% | – |
| CC(C(=O)O)c1cccc2c(-c3ccc(Cl)cc3)nccc12 (centres unmarked) [F, 2-[1-(4-chlorophenyl)isoquinolin-5-yl]propionic acid] | 3.2 mg/kg | 27.3 ± 6.3% | 33.1 ± 4.8% | 1/5 | 0/5 | 2/5 | 2/5 | – | 39.7 ± 5.1% | – |
| CCOC(=O)Cc1cccc2c(-c3ccccc3)nccc12 [J, ethyl-1-phenylisoquinoline-5-acetate] | – | – | – | – | – | – | – | – | 23.2 ± 6.1% | inhibition in vivo at 30 mg/kg [3, 8]: 41.1 ± 4.8% |
| NC(=O)Cc1cccc2c(-c3ccccc3)nccc12 [K, 1-phenylisoquinoline-5-acetamide] | – | – | – | – | – | – | – | – | 9 ± 6.4% | inhibition in vivo at 30 mg/kg [3, 8]: 39.7 ± 5.8% |
| CCC(C)c1nccc2c(CC(=O)O)cccc12 (centres unmarked) [P, 1-sec-butylisoquinoline-5-acetic acid] | – | – | 15.9 ± 10.4% | – | – | – | – | – | 39.6 ± 7% | – |
| CC(C)Cc1nccc2c(CC(=O)O)cccc12 [O, 1-isobutylisoquinoline-5-acetic acid] | – | – | 21.2 ± 7.8% | – | – | – | – | – | 30.3 ± 5.6% | inhibition in vivo at 30 mg/kg [3, 8]: 42.8 ± 8.8% |
| COc1ccc2c(c1)c(CC(=O)O)c(C)n2C(=O)c1ccc(Cl)cc1 [Indomethacin, reference compound] | – | – | – | – | – | – | – | 17.3 mg/kg | – | inhibition in vivo at 1 mg/kg ([3]; 3 h): 15.9 ± 6.2%; inhibition in vivo at 3 mg/kg ([3]; 3 h): 29.8 ± 5.7%; inhibition in vivo at 10 mg/kg ([3]; 3 h): 40.6 ± 5.1%; ED50 ([1]; 1 h): 0.21 mg/kg; troubles in the digestive organs (digestive organs): fairly heavy troubles in the digestive organs |
| O=C(O)Cc1cccc2c(C3CCCC3)nccc12 [N, 1-cyclopentylisoquinoline-5-acetic acid] | – | – | 21.9 ± 8.1% | – | – | – | – | – | 24.8 ± 4.9% | – |
